Consider seven molecules from DBAASP.

Test systems include Staphylococcus aureus; Enterococcus sp.; Enterococcus faecalis; Escherichia coli W3110.
Test in all cases: ≥ marks a high value that may be exact or a test limit, other limits are often not marked, values filed in µg/mL are converted to µM
The subject of assay [1] is Streptococcus mutans comD.
In assay [2] the test system is Streptococcus mutans UA159.
The test system of assay [3] is Streptococcus sanguinis NY101.
The subject of assay [4] is Streptococcus gordonii DL1.
For assay [5], the system named is Aspergillus fumigatus KCTC 4165.
In assay [6] the test system is Bacillus subtilis KCTC 1918.
Assay [7] concerns Staphylococcus aureus KCTC 1621.
Assay [8] has as its system Salmonella typhimurium KCTC 1926.
Assay [9] relates to Candida albicans TIMM 1768.
Assay [10] relates to Escherichia coli KCTC 1682.
Assay [11] concerns Pseudomonas aeruginosa KCTC 1637.
Assay [12] relates to Streptococcus pyogenes KCTC 3096.
The subject of assay [13] is Candida tropicalis KCTC 1925.
Assay [14] deals with Micrococcus luteus KCTC 3063.
Assay [15] deals with Staphylococcus aureus KCTC 1928.
Assay [16] relates to Candida albicans KCTC 7965.
Assay [17] concerns Escherichia coli K-12 594.
The subject of assay [18] is Bacillus subtilis KCTC 3068.
Assay [19] has as its system Lactococcus lactis subsp. cremoris I116.
Assay [20] concerns Saccharomyces cerevisiae KCTC 7296.
Assay [21] has as its system Trichosporon beigelii KCTC 7707.
Assay [22] concerns Escherichia coli PCM 2057.
For assay [23], the system named is Micrococcus luteus ATCC 4698.
Assay [24] concerns Pseudomonas aeruginosa PAK.
Assay [25] has as its system Streptococcus mitis ATCC 903.
The test system of assay [26] is Streptococcus gordonii Challis DL1.
Assay [27] has as its system Streptococcus sobrinus ATCC 33478.

Molecules are shown by their SMILES. ≈ marks a conversion by molar mass, not a printed value.

Turning to `NCCCC[C@H](NC(=O)[C@H](Cc1c[nH]c2ccccc12)NC(=O)[C@H](Cc1ccccc1)NC(=O)[C@H](CCCCN)NC(=O)[C@H](CCCCN)NC(=O)[C@@H](N)Cc1ccccc1)C(=O)N[C@@H](Cc1c[nH]c2ccccc12)C(=O)N[C@@H](Cc1ccccc1)C(=O)N[C@@H](CCCN=C(N)N)C(=O)N[C@@H](CCCN=C(N)N)C(=O)N[C@@H](Cc1ccccc1)C(=O)O` [FKKFWKWFRRF], the minimal inhibitory concentration (MIC) was 6.5 µM (≈ 10.9 µg/mL) in assay [1], 7 µM (≈ 11.7 µg/mL) in assay [2], at least 40 µM in assay [3] and 20 µM (≈ 33.5 µg/mL) in assay [4].

As to `CC[C@H](C)[C@H](NC(=O)[C@H](CCCCN)NC(=O)[C@H](CCCCN)NC(=O)[C@H](CC(C)C)NC(=O)[C@H](CCCCN)NC(=O)[C@H](CCCCN)NC(=O)CN)C(=O)NCC(=O)N[C@@H](CCC(N)=O)C(=O)N[C@@H](CCCCN)C(=O)N[C@H](C(=O)N[C@@H](CCCCN)C(=O)N[C@@H](CC(N)=O)C(=O)N[C@@H](Cc1ccccc1)C(=O)N[C@@H](Cc1ccccc1)C(=O)N[C@@H](CCC(N)=O)C(=O)N[C@@H](CCCCN)C(=O)N[C@@H](CC(C)C)C(=O)O)[C@@H](C)CC` [GKKLKKIGQKIKNFFQKL], the MIC in assay [5] was 12.5 µM (≈ 26.8 µg/mL); in [6] it was 3.12 µM (≈ 6.7 µg/mL); in [7] it was 1.56 µM (≈ 3.35 µg/mL); in [8], 1.56 µM (≈ 3.35 µg/mL); in assay [9], 6.25 µM (≈ 13.4 µg/mL); in [10] it was 3.12 µM (≈ 6.7 µg/mL). Moreover, the MIC in assay [11] was determined as 0.78 µM (≈ 1.67 µg/mL); in assay [12] it was 3.12 µM (≈ 6.7 µg/mL).

For `CC[C@H](C)[C@H](NC(=O)[C@H](CCCCN)NC(=O)[C@H](CCCCN)NC(=O)[C@H](CC(C)C)NC(=O)[C@H](C)NC(=O)[C@H](CCCN=C(N)N)NC(=O)[C@H](CCCCN)NC(=O)CNC(=O)[C@H](CC(C)C)NC(=O)[C@H](CCCN=C(N)N)NC(=O)[C@H](CC(C)C)NC(=O)[C@H](C)NC(=O)[C@H](CC(C)C)NC(=O)CNC(=O)[C@H](CC(N)=O)NC(=O)[C@H](CC(C)C)NC(=O)[C@H](CC(C)C)NC(=O)CN)C(=O)N[C@H](C(=O)N[C@@H](CCCCN)C(=O)N[C@@H](CCCN=C(N)N)C(=O)N[C@@H](CC(C)C)C(=O)N[C@@H](CS)C(=O)N[C@@H](CCCN=C(N)N)C(=O)O)[C@@H](C)CC` [GLLNGLALRLGKRALKKIIKRLCR], the minimal inhibitory concentration (MIC) in assay [13] is 1.15 µM (≈ 3.12 µg/mL); in the assay on Staphylococcus aureus, 9.24 µM (≈ 25 µg/mL); in assay [14] it was 0.577 µM (≈ 1.56 µg/mL); in assay [15], 9.24 µM (≈ 25 µg/mL); in [16] it was 18.5 µM (≈ 50 µg/mL); in assay [17], 1.15 µM (≈ 3.12 µg/mL). In addition, the MIC in assay [18] is 1.15 µM (≈ 3.12 µg/mL); in the assay with Enterococcus sp., 9.24 µM (≈ 25 µg/mL).

Turning to `CC[C@H](C)[C@H](NC(=O)[C@H](CC(C)C)NC(=O)CNC(=O)CNC(=O)[C@@H](NC(=O)[C@H](CCCCN)NC(=O)CNC(=O)[C@H](CC(C)C)NC(=O)[C@@H](NC(=O)[C@H](CC(=O)O)NC(=O)[C@@H](NC(=O)[C@H](CC(C)C)NC(=O)CN)C(C)C)C(C)C)C(C)C)C(=O)N[C@@H](CCCCN)C(=O)N[C@@H](CCCCN)C(=O)N[C@@H](CC(C)C)C(=O)N[C@@H](CC(C)C)C(=O)N1CCC[C@H]1C(N)=O` [GLVDVLGKVGGLIKKLLP], the MIC in assay [19] was at least 32 µM.

On to `CC[C@H](C)[C@H](NC(=O)[C@@H](NC(=O)[C@@H](N)CCCNC(=N)N)[C@@H](C)CC)C(=O)N[C@@H](CC(=O)O)C(=O)N[C@@H](CC(C)C)C(=O)N[C@@H](CC(C)C)C(=O)N[C@@H](Cc1c[nH]c2ccccc12)C(=O)N[C@@H](CCCNC(=N)N)C(=O)N[C@H](C(=O)N[C@@H](CCCNC(=N)N)C(=O)N[C@@H](CCCNC(=N)N)C(=O)N1CCC[C@H]1C(=O)N[C@@H](Cc1c[nH]c2ccccc12)C(=O)N[C@@H](CCCCN)C(=O)N1CCC[C@H]1C(=O)N[C@@H](CCCCN)C(=O)N[C@@H](Cc1ccccc1)C(=O)N[C@H](C(=O)N[C@H](C(=O)N[C@H](C(=O)N[C@@H](Cc1c[nH]c2ccccc12)C(=O)N[C@H](C(=O)N[C@H](C=O)CCCNC(=N)N)C(C)C)C(C)C)[C@@H](C)O)C(C)C)C(C)C` [RIIDLLWRVRRPWKPKFVTVWVR], for which the MIC in assay [20] is 10 µM (≈ 30 µg/mL); in [21], 10 µM (≈ 30 µg/mL); in assay [9] it was 14.1 µM (≈ 42.5 µg/mL).

Turning to `CC[C@H](C)[C@H](NC(=O)[C@@H](NC(=O)[C@@H](N)CO)C(C)C)C(=O)NCC(=O)N[C@H]1CSSC[C@@H](C(=O)N[C@@H](Cc2ccccc2)C(=O)N[C@H](C(=O)N[C@@H](CCCCN)C(N)=O)C(C)C)NC(=O)[C@@H]2CCCN2C(=O)[C@H](CCCN=C(N)N)NC(=O)[C@@H]2CCCN2C(=O)[C@@H]2CCCN2C(=O)[C@H]([C@@H](C)CC)NC(=O)[C@H](CO)NC(=O)[C@H](CCCCN)NC(=O)[C@H]([C@@H](C)O)NC(=O)[C@H](Cc2c[nH]c3ccccc23)NC1=O` [SVIGCWTKSIPPRPCFVK], the values for the MIC in assay [22] and in assay [23] were at least 495 µM and at least 74.3 µM, respectively.

For `C[C@@H](O)[C@H](NC(=O)[C@H](CO)NC(=O)[C@H](Cc1c[nH]c2ccccc12)NC(=O)[C@H](Cc1c[nH]c2ccccc12)NC(=O)[C@H](CO)NC(=O)[C@H](Cc1cnc[nH]1)NC(=O)[C@H](Cc1c[nH]c2ccccc12)NC(=O)[C@@H](N)Cc1c[nH]c2ccccc12)C(=O)N[C@@H](Cc1c[nH]c2ccccc12)C(N)=O` [WWHSWWSTW], the MIC in [24] is at least 91.8 µM; in the assay with Enterococcus faecalis, at least 91.8 µM; in the assay on Staphylococcus aureus, over 91.8 µM; in the assay on Escherichia coli W3110, at least 91.8 µM; in [25], at least 91.8 µM; in assay [2], at least 91.8 µM. The minimal inhibitory concentration (MIC) in assay [3], in assay [26] and in [27] was at least 91.8 µM throughout.

The MIC is the smallest concentration in the dilution series that meets the test's criterion for growth inhibition.
